These results are taken from patent US9435792B2, “Hemolysis reagent composition for hemoglobin A1C quantitative analysis using enzymatic method” (I-Sens, Inc., priority 2012, dated 2016).

The data set in a line: Evaluation of solubility of surfactant. In kind it is physicochemical. The conditions noted are these: surfactant dissolved in distilled water to a concentration of 0.75 mg/mL. The protocol: In order to use a surfactant, it is essential that the solubility of a sample itself be excellent. First of all, if the sample is not dissolved it cannot be used at all, and thus the solubility of a surfactant was evaluated as a prerequisite.

Molecules are shown by their SMILES.

With `CCCCCCCCCCCCCC(=O)NCCC[N+](C)(C)CCCS(=O)(=O)[O-]` [Comp. Ex. 1], the Solubility result is “∘ (dissolved at a concentration of 0.75 mg/mL)”.
